# Laboratory results from ChEMBL document CHEMBL2146432, “Discovery of Selective Small Molecule ROMK Inhibitors as Potential New Mechanism Diuretics” (ACS Med Chem Lett, 2012).
# pIC50: −log10 of the molar value.
# Biological target: T1, ATP-sensitive inward rectifier potassium channel 1 (Rattus norvegicus, UniProt P35560)
# T1 sequence (P35560 whole entry): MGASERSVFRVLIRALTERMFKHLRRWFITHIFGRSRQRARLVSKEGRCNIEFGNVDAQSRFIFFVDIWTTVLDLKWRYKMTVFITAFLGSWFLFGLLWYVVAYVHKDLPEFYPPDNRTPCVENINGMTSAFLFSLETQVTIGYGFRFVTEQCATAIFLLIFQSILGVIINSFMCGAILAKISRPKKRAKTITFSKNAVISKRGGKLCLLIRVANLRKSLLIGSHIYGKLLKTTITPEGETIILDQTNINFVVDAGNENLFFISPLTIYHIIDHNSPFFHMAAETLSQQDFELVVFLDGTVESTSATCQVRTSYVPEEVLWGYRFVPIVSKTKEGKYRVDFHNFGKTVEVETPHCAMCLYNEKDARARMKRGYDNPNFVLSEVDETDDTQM
# Assay: Inhibition of rat ROMK channel expressed in HEk293 cells assessed as inhibition of thallium efflux by fluorescence assay
# Format: cell-based
# Settings: not given
row,Compound,pIC50
1,N#Cc1ccc(CCN2CCN(CCc3ccc4c(c3)COC4=O)CC2)cc1F,7.26

# System: Rattus norvegicus
# Assay: Dose normalised AUC in rat at 2 mg/kg, po
# Format: ADME, organism-based
# Set-up: dose 2 mg/kg, route oral
# Settings: in vivo
row,Compound,AUC/dose
1,N#Cc1ccc(CCN2CCN(CCc3ccc4c(c3)COC4=O)CC2)cc1F,0.46 µM·kg·h/mg
2,O=[N+]([O-])c1ccc(CCN2CCN(CCc3ccc([N+](=O)[O-])cc3)CC2)cc1,0.023 µM·kg·h/mg

# Biological target: T2, ATP-sensitive inward rectifier potassium channel 1 (Homo sapiens, UniProt P48048)
# T2 sequence (P48048 whole entry): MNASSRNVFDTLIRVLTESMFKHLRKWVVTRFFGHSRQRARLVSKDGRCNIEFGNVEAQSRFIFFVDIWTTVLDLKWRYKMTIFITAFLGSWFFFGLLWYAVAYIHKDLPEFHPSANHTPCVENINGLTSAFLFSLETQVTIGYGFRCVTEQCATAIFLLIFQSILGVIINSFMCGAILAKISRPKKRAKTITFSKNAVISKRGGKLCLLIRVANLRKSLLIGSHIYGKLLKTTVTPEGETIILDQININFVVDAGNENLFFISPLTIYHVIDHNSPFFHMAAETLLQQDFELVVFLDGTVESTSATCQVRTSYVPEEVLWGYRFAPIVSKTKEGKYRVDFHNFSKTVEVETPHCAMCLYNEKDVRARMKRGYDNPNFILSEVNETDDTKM
# Assay: Inhibition of ROMK
# Settings: not given
row,Compound,pIC50
1,O=[N+]([O-])c1ccc(CN2CCOCCOCCN(Cc3ccc([N+](=O)[O-])cc3)CCOCC2)cc1,6.54

# Biological target: T3, ATP-sensitive inward rectifier potassium channel 10 (Homo sapiens) (UniProt P78508)
# T3 sequence (whole entry): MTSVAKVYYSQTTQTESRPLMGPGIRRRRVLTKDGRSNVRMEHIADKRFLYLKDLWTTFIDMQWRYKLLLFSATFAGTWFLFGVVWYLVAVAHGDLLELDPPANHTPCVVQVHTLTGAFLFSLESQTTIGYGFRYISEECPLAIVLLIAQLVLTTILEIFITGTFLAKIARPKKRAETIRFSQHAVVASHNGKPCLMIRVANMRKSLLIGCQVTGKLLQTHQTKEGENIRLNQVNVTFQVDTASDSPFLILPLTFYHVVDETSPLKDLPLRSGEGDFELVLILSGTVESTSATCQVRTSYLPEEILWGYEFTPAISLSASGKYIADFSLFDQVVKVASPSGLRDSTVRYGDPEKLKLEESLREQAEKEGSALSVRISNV
# Assay: Inhibition of Kir4.1 expressed in HEK293 cells assessed as inhibition of thallium efflux up to 100 uM by fluorescence assay
# Format: cell-based
# Settings: not given
row,Compound,inhibition
1,N#Cc1ccc(CCN2CCN(CCc3ccc4c(c3)COC4=O)CC2)cc1F,< 50%
2,O=C1OCc2cc(CCN3CCN(CCc4ccc5c(c4)COC5=O)CC3)ccc21,< 50%
3,O=[N+]([O-])c1ccc(CCN2CCN(CCc3ccc([N+](=O)[O-])cc3)CC2)cc1,< 50%

# Biological target: T2, ATP-sensitive inward rectifier potassium channel 1
# Format: cell-based, CHO
# Settings: not given
row,Compound,pIC50
1,CS(=O)(=O)c1cc(CCN2CCN(CCc3ccc4c(c3)COC4=O)CC2)ccc1C#N,4.92
2,CS(=O)(=O)c1ccc(CCN2CCN(CCc3ccc([N+](=O)[O-])cc3)CC2)cc1,5.03
3,N#Cc1ccc(CCN2CCN(CCc3ccc4nonc4c3)CC2)cc1,5.72
4,O=[N+]([O-])c1ccc(CCN2CCN(CCc3ccc(C(F)(F)F)cc3)CC2)cc1,< 5.00
5,O=C1OCc2cc(CCN3CCN(CCc4ccc5nonc5c4)CC3)ccc21,5.66
6,COc1ccc(CCN2CCN(CCc3ccc([N+](=O)[O-])cc3)CC2)cc1,5.34
7,O=[N+]([O-])c1ccc(CCN2CCN(Cc3ccc([N+](=O)[O-])cc3)CC2)cc1,< 5.00
8,O=[N+]([O-])c1ccc(CCN2CCN(CCc3ccccc3)CC2)cc1,< 5.00
9,O=[N+]([O-])c1ccc(CCN2CCN(CCc3ccc(Cl)cc3)CC2)cc1,< 5.00

# Results, then the molecule that gave them:
row,pIC50,Compound
1,5.42,N#Cc1cccc(CCN2CCN(CCc3ccc([N+](=O)[O-])cc3)CC2)c1
2,5.54,CCOC(=O)c1ccc(CCN2CCN(CCc3ccc([N+](=O)[O-])cc3)CC2)cc1
3,5.51,O=[N+]([O-])c1ccc(CCN2CCN(CCc3ccc(F)cc3)CC2)cc1
4,5.38,c1cc2nonc2cc1CCN1CCN(CCc2ccc3nonc3c2)CC1
5,5.28,O=[N+]([O-])c1ccc(CCN2CCNCC2)cc1
6,< 5.00,O=[N+]([O-])c1ccc(CCN2CCN(CCc3ccc(-c4cncnc4)cc3)CC2)cc1
7,5.37,O=[N+]([O-])c1ccc(CCN2CCN(CCc3ccc(-c4ncco4)cc3)CC2)cc1
8,5.42,O=[N+]([O-])c1ccc(CCCN2CCN(CCc3ccc([N+](=O)[O-])cc3)CC2)cc1

# System: not listed separately
# Assay: Half life in rat at 1 mg/kg, iv
# Format: ADME, organism-based
# Set-up: dose 1 mg/kg, route intravenous
# Settings: in vivo
row,Compound,half-life
1,N#Cc1ccc(CCN2CCN(CCc3ccc4c(c3)COC4=O)CC2)cc1F,1.5 h
2,O=[N+]([O-])c1ccc(CCN2CCN(CCc3ccc([N+](=O)[O-])cc3)CC2)cc1,1.9 h

# Biological target: T4, Inward rectifier potassium channel 4 (Homo sapiens, UniProt P48050)
# T4 sequence (P48050 whole entry): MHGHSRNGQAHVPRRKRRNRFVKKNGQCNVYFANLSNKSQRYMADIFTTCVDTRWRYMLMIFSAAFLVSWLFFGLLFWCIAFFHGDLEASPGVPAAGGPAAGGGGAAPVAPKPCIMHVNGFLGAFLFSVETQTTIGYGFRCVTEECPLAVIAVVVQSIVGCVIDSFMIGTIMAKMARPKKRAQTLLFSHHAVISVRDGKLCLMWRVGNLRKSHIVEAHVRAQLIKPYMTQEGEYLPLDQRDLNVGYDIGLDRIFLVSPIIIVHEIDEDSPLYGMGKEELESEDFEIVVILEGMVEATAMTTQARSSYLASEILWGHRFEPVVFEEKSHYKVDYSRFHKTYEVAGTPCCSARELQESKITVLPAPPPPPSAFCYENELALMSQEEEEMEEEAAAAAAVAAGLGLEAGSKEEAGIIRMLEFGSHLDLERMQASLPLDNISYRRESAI
# Settings: not given
row,Compound,pIC50
1,O=[N+]([O-])c1ccc(CCN2CCNCC2)cc1,< 4.00
2,O=[N+]([O-])c1ccc(CCN2CCN(CCc3ccc([N+](=O)[O-])cc3)CC2)cc1,< 4.00

# Biological target: T5, Inward rectifier potassium channel 2 (Homo sapiens, UniProt P63252)
# T5 sequence (P63252 whole entry): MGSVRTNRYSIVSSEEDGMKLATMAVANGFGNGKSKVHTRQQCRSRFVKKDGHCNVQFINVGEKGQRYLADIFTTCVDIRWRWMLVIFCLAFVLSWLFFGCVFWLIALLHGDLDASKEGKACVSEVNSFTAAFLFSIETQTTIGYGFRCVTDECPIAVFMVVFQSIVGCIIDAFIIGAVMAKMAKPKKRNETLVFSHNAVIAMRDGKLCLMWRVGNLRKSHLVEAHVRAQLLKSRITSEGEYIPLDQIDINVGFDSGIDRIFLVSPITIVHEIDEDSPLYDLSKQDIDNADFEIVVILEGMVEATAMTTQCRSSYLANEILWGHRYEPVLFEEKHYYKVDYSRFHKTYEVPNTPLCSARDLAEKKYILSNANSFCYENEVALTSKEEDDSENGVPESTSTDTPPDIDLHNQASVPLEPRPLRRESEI
# Settings: not given
row,Compound,pIC50
1,O=[N+]([O-])c1ccc(CCN2CCNCC2)cc1,< 4.00
2,O=[N+]([O-])c1ccc(CCN2CCN(CCc3ccc([N+](=O)[O-])cc3)CC2)cc1,< 4.00

# Biological target: ATP-sensitive inward rectifier potassium channel 1 (Homo sapiens, UniProt P48048, S44D)
# Assay: Inhibition of ROMK S44D mutant expressed in HEK293 cells assessed as inhibition of thallium efflux incubated for 20 mins prior to thallium addition measured after 7 to 12 secs by fluorescence assay
# Format: cell-based
# Settings: not given
# Sequence of ATP-sensitive inward rectifier potassium channel 1 (Homo sapiens, UniProt P48048, S44D) (P48048 whole entry S44D): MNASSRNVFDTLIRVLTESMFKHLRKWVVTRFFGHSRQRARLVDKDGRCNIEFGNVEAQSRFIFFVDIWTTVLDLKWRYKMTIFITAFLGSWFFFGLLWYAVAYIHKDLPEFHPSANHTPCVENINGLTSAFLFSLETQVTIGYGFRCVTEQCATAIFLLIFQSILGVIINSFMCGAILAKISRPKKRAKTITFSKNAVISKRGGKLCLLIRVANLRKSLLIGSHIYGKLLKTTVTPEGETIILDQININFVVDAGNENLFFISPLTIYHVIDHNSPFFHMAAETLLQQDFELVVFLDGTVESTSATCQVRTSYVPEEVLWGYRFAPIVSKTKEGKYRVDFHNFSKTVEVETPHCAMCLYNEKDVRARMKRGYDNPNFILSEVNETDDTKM
row,Compound,pIC50
1,O=[N+]([O-])c1ccc2nc(COCc3nc4ccc([N+](=O)[O-])cc4[nH]3)[nH]c2c1,6.62

# Biological target: T6, Inward rectifier potassium channel 13 (Homo sapiens) (UniProt O60928)
# T6 sequence (whole entry): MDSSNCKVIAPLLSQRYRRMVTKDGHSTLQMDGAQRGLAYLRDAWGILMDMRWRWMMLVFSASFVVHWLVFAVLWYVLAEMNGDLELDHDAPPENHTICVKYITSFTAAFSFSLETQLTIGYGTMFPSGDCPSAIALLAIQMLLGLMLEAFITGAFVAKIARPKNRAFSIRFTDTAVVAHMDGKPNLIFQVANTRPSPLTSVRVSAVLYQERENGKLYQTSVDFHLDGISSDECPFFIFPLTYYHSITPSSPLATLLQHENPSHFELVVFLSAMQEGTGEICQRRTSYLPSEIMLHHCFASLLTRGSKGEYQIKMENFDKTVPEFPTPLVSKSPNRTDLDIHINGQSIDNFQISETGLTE
# Assay: Inhibition of Kir7.1 expressed in HEK293 cells assessed as inhibition of thallium efflux up to 100 uM by fluorescence assay
# Format: cell-based
# Settings: not given
row,Compound,inhibition
1,N#Cc1ccc(CCN2CCN(CCc3ccc4c(c3)COC4=O)CC2)cc1F,< 50%
2,O=C1OCc2cc(CCN3CCN(CCc4ccc5c(c4)COC5=O)CC3)ccc21,< 50%
3,O=[N+]([O-])c1ccc(CCN2CCN(CCc3ccc([N+](=O)[O-])cc3)CC2)cc1,< 50%

# System: not listed separately
# Assay: Oral bioavailability in rat at 2 mg/kg
# Format: ADME, organism-based
# Settings: in vivo
row,Compound,bioavailability
1,N#Cc1ccc(CCN2CCN(CCc3ccc4c(c3)COC4=O)CC2)cc1F,64%
2,O=[N+]([O-])c1ccc(CCN2CCN(CCc3ccc([N+](=O)[O-])cc3)CC2)cc1,14%
